Results published in patent US20070276011A1, “Plasminogen Activator Inhibitor-1 Inhibitor” (priority 2003, published 2007).

Assays:
recombinant human PAI-1 [1] = molecular target: T1, recombinant human PAI-1 (Homo sapiens, UniProt P05121); assay: PAI-1 inhibitory activity, Test Method A (tPA fluorogenic substrate, Tris buffer pH8.0, 37 C); type: biochemical; details: for Inhibitory Ratio at 25 μM (%): Test Method A; for IC50: 50% inhibitory concentration of PAI-1 activity, according to the aforementioned method
recombinant human PAI-1 [2] = molecular target: T1, recombinant human PAI-1; assay: Inhibition of complex formation of PAI-1 and tPA (SDS-PAGE); type: biochemical; details: 100 μM concentration
Description: To a 2.5 μL solution obtained by diluting a DMSO solution of the test compound at 4-fold concentration of the test concentration with PBS(-), 5 μL of 150 nM recombinant human PAI-1 solution adjusted with a phosphate buffer (pH6.6, 0.05M Sodium Phosphate, 0.1 M NaCl, 1 mM EDTA) was added, and reacted for 5 minutes at 37° C. […] of 600 nM recombinant human one-chain tPA solution adjusted with PBS(-) was added, and further reacted for 5 minutes at 37° C. 10 μL of stop buffer (1.25 mM Tris-HCl pH6.8, 4% SDS, 0.01% BPB, 14% Glycerol) was added, heated for 30 seconds at 100° C., and then the total amount of 20 μL was applied to 10% SDS-PAGE gel electrophoresis. When the test compound was not added as being a control, a band of PAI-1-tPA complex was observed.

T1 sequence (P05121 24-402): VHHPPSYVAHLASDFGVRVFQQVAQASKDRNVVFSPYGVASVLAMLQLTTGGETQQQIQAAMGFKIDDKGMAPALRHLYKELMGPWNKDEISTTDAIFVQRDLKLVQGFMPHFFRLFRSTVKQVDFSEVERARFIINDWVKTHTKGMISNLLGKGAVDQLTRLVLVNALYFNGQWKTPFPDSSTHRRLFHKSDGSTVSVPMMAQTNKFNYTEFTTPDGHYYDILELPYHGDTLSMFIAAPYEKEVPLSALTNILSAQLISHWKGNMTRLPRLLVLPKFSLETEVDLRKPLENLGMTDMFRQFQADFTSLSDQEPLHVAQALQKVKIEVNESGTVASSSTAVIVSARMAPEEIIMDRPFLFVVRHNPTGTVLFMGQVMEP

SMILES	Inhibitory Ratio at 25 μM (%) (recombinant human PAI-1 [1]; 25 μM test compound)	Inhibitory Ratio at 25 μM (%) (recombinant human PAI-1 [1]; test compound 25 μM)	other results
N=C(N)NCCC[C@H](N)C(=O)O.N=C(N)NCCC[C@H](N)C(=O)O.N=C(N)NCCC[C@H](N)C(=O)O.O=C1SC(=Cc2cc(O)c(O)c(O)c2)C(=O)N1Cc1ccc(Cl)c(Cl)c1 [compound 334, tri(L-(+)-arginine) salt of 5-(3,4,5-trihydroxybenzylidene)-3-(3,4-dichlorobenzyl)thiazolidine-2,4-dione]	>99%	–	IC50 (recombinant human PAI-1 [1]): 540 nM; inhibition of the complex formation of PAI-1 and tPA observed with SDS-PAGE (recombinant human PAI-1 [2]): completely inhibited
O=C1SC(=Cc2cccc(O)c2O)C(=O)N1Cc1ccc(C(F)(F)F)cc1 [compound 43, 5-(2,3-Dihydroxybenzylidene)-3-[4-(trifluoromethyl)benzyl]thiazolidine-2,4-dione]	–	>99%	IC50 (recombinant human PAI-1 [1]): 360 nM; inhibition of the complex formation of PAI-1 and tPA observed with SDS-PAGE (recombinant human PAI-1 [2]): completely inhibited
CCOC1=NN(c2ccc([N+](=O)[O-])cc2)C(=O)C1=Cc1cc(O)c(O)cc1O [compound 156]	–	70%	IC50 (recombinant human PAI-1 [1]): 300 nM; inhibition of the complex formation of PAI-1 and tPA observed with SDS-PAGE (recombinant human PAI-1 [2]): completely inhibited
CC(C)C1=NN(c2ccc([N+](=O)[O-])cc2)C(=O)C1=Cc1cc(C=Cc2ccccc2)ccc1O [compound 531, 4-(21-Hydroxy-5-styrylbenzylidene)-1-(4-nitrophenyl)-3-isopropyl-2-pyrazolin-5-one]	50%	–	–
O=C(Nc1cc(C(F)(F)F)ccc1F)c1cc(C=C2SC(=O)N(Cc3ccc(Cl)c(Cl)c3)C2=O)ccc1O [compound 442]	58%	–	–
O=C(O)c1cccc(N2N=C(c3ccccc3)C(=Cc3ccc(Br)o3)C2=O)c1 [compound 215]	–	77%	–
CC(C)C1=NN(c2ccc(Cl)c(Cl)c2)C(=O)C1=Cc1cc(C=Cc2ccc(Oc3ccccc3)cc2)ccc1O [Compound No. 566]	76%	–	–
O=C(O)c1cccc(N2N=C(C(F)(F)F)C(=Cc3ccc(-c4cc(C(F)(F)F)cc(C(F)(F)F)c4)o3)C2=O)c1 [compound 179]	–	62%	–
COc1ccc(Oc2ccc([N+](=O)[O-])c(C=C3C(=O)N(c4ccc(Cl)c(Cl)c4)N=C3C(C)C)c2)cc1OC [Compound No. 563, 4-[2-Nitro-5-(3,4-dimethoxyphenoxy)benzylidene]-1-(3,4-dichlorophenyl)-3-isopropyl-2-pyrazolin-5-one]	62%	–	–
CC(C)C1=NN(c2ccc(C(=O)O)cc2)C(=O)C1=Cc1ccc(C=Cc2ccccc2)cc1 [compound 536]	>99%	–	–
CC(C)C1=NN(c2cc(Cl)cc(Cl)c2)C(=O)C1=Cc1cc(Br)ccc1O [compound 526]	>99%	–	–
CCOC1=NN(c2ccc([N+](=O)[O-])cc2)C(=O)C1=Cc1cc(C=Cc2ccccc2)ccc1O[Si](C)(C)C(C)(C)C [compound 543]	>99%	–	–
O=C1C(=Cc2cc(Br)cc(Br)c2O)C(O)=NN1c1ccccc1 [compound 101]	–	28%	–
CCOC1=NN(c2ccc([N+](=O)[O-])cc2)C(=O)C1=Cc1ccc(O)c(O)c1O [compound 155]	–	39%	–
CC1=NN(c2cccc(Cl)c2)C(=O)C1=Cc1cc(O)c(O)cc1O [compound 158]	–	72%	–
CC1=NN(c2cccc(Cl)c2)C(=O)C1=Cc1cc(O)c(O)c(O)c1 [compound 123]	–	67%	–
CC1=NN(c2ccc(Cl)cc2)C(=O)C1=Cc1cc(O)c(O)cc1O [compound 224]	–	69%	–
CC(C)(C)C1=NN(c2cc(Cl)cc(Cl)c2)C(=O)C1=Cc1cc(O)c(O)c(O)c1 [compound 139]	–	>99%	–
COc1cc(C=C2C(=O)N(c3ccc(Cl)c(Cl)c3)N=C2C(C)C)cc(C(=O)O)c1O [compound 559]	>99%	–	–
O=C1SC(=Cc2ccc(O)c(O)c2)C(=O)N1Cc1ccc(C=Cc2cc(C(F)(F)F)cc(C(F)(F)F)c2)cc1 [compound 58, 5-(3,4-Dihydroxybenzylidene)-3-{4-[3,5-bis(trifluoromethyl)styryl]-benzyl}thiazolidine-2,4-dione]	–	95%	–
CC(C)C1=NN(c2cccc([N+](=O)[O-])c2)C(=O)C1=Cc1ccc(Br)o1 [compound 200, 4-[(5-Bromofuran-2-yl)methylene]-1-(3-nitrophenyl)-3-isopropyl-2-pyrazolin-5-one]	–	53%	–
C=CCOc1ccc(C=C2C(=O)N(c3ccc(Cl)c(C(=O)O)c3)N=C2C)cc1OC [compound 169]	–	27%	–
CC(C)C1=NN(c2cc(Cl)cc(Cl)c2)C(=O)C1=Cc1ccc(O)c(C(=O)O)c1 [compound 106]	–	>99%	–
O=C1SC(=Cc2ccc(O)c(-c3ccc(O)c(O)c3)c2)C(=O)N1Cc1ccc(Cl)c(Cl)c1 [compound 445]	>99%	–	–

The next lines start with results.

Inhibitory Ratio at 25 μM (%) (recombinant human PAI-1 [1]; 25 μM test compound)	Inhibitory Ratio at 25 μM (%) (recombinant human PAI-1 [1]; test compound 25 μM)	SMILES	other results
87%	–	COc1cc(C=C2SC(=O)N(Cc3ccc(Cl)c(Cl)c3)C2=O)cc(C(=O)Nc2ccc(O)c(O)c2)c1O [compound 349, 5-[3-Methoxy-4-hydroxy-5-(3,4-dihydroxyphenylcarbamoyl)-benzylidene]-3-(3,4-dichlorobenzyl)thiazolidine-2,4-dione]	IC50 (recombinant human PAI-1 [1]): 570 nM; inhibition of the complex formation of PAI-1 and tPA observed with SDS-PAGE (recombinant human PAI-1 [2]): completely inhibited
71%	–	O=C(Nc1cc(O)c(O)c(O)c1)c1cc(C=C2SC(=O)N(Cc3ccc(Cl)c(Cl)c3)C2=O)ccc1O [compound 435]	inhibition of the complex formation of PAI-1 and tPA observed with SDS-PAGE (recombinant human PAI-1 [2]): completely inhibited
91%	–	O=C(Nc1ccc(O)c(O)c1)c1cc(C=C2SC(=O)N(Cc3cc(C(F)(F)F)cc(C(F)(F)F)c3)C2=O)ccc1O [compound 384]	inhibition of the complex formation of PAI-1 and tPA observed with SDS-PAGE (recombinant human PAI-1 [2]): completely inhibited
–	>99%	O=C1SC(=Cc2cccc(O)c2O)C(=O)N1Cc1cccc(Cl)c1Cl [compound 18, 5-(2,3-Dihydroxybenzylidene)-3-(2,3-dichlorobenzyl)thiazolidine-2,4-dione]	IC50 (recombinant human PAI-1 [1]): 380 nM; inhibition of the complex formation of PAI-1 and tPA observed with SDS-PAGE (recombinant human PAI-1 [2]): completely inhibited
–	>99%	O=C1SC(=Cc2cccc(O)c2O)C(=O)N1Cc1ccc(Cl)cc1Cl [compound 22, 5-(2,3-Dihydroxybenzylidene)-3-(2,4-dichlorobenzyl)thiazolidine-2,4-dione]	IC50 (recombinant human PAI-1 [1]): 440 nM; inhibition of the complex formation of PAI-1 and tPA observed with SDS-PAGE (recombinant human PAI-1 [2]): completely inhibited
36%	–	O=C1SC(=Cc2c[nH]c3ccccc23)C(=O)N1Cc1ccc(Cl)c(Cl)c1 [compound 410, 5-(indol-3-ylmethylene)-3-(3,4-dichlorobenzyl)thiazolidine-2,4-dione]	–
>99%	–	O=C(Nc1cc(O)cc(C(F)(F)F)c1)c1cc(C=C2SC(=O)N(Cc3ccc(Cl)c(Cl)c3)C2=O)ccc1O [compound 459]	–
–	>99%	O=C1SC(=Cc2ccc(O)c(O)c2)C(=O)N1Cc1cccc(Cl)c1 [compound 31]	–
>99%	–	COc1ccc(C)cc1NC(=O)c1cc(C=C2SC(=O)N(Cc3ccc(Cl)c(Cl)c3)C2=O)ccc1O [compound 452, 5-[4-hydroxy-3-(2-methoxy-5-methylphenylcarbamoyl)-benzylidene]-3-(3,4-dichlorobenzyl)thiazolidine-2,4-dione]	–
>99%	–	COc1cccc(NC(=O)c2cc(C=C3SC(=O)N(Cc4ccc(Cl)c(Cl)c4)C3=O)ccc2O)c1OC [compound 434, 5-[4-hydroxy-3-(2,3-dimethoxyphenylcarbamoyl)benzylidene]-3-(3,4-dichlorobenzyl)thiazolidine-2,4-dione]	–
–	>99%	O=C1SC(=Cc2ccc(O)c(O)c2)C(=O)N1Cc1ccc(-c2ccccc2)cc1 [compound 21]	–
–	>99%	O=C1SC(=Cc2cc(O)cc(O)c2)C(=O)N1Cc1ccc(Cl)c(Cl)c1 [compound 40]	–
>99%	–	O=C1SC(=Cc2ccc(O)c(-c3c(O)cccc3O)c2)C(=O)N1Cc1ccc(Cl)c(Cl)c1 [compound 449]	–
64%	–	COc1ccc(NC(=O)c2cc(C=C3SC(=O)N(Cc4ccc(Cl)c(Cl)c4)C3=O)ccc2O)cc1OC [compound 432, 5-[4-hydroxy-3-(3,4-dimethoxyphenylcarbamoyl)benzylidene]-3-(3,4-dichlorobenzyl)thiazolidine-2,4-dione]	–
83%	–	Cc1ccc(O)cc1NC(=O)c1cc(C=C2SC(=O)N(Cc3ccc(Cl)c(Cl)c3)C2=O)ccc1O [compound 456]	–
>99%	–	O=C1SC(=Cc2ccc(O)c(O)c2)C(=O)N1Cc1cccc(Nc2ccccc2)c1 [compound 318, 5-(3,4-Dihydroxybenzylidene)-3-[3-(phenylamino)benzyl]thiazolidine-2,4-dione]	–
66%	–	COc1ccc(NC(=O)c2cc(C=C3SC(=O)N(Cc4ccc(Cl)c(Cl)c4)C3=O)ccc2O)cc1 [compound 353, 5-[4-hydroxy-3-(4-methoxyphenylcarbamoyl)benzylidene]-3-(3,4-dichlorobenzyl)thiazolidine-2,4-dione]	–
>99%	–	O=C(Nc1cc(C=C2SC(=O)N(Cc3ccc(Cl)c(Cl)c3)C2=O)ccc1O)c1ccc(OC(F)(F)F)cc1 [compound 365]	–
–	>99%	O=C1SC(=Cc2ccc(O)c(O)c2)C(=O)N1Cc1ccc(C(F)(F)F)cc1 [compound 44]	–
>99%	–	COc1cc(C=C2SC(=O)N(Cc3ccc(Cl)c(Cl)c3)C2=O)cc(C(=O)Nc2ccc(O)c(C)c2)c1O [compound 361]	–
